Measurements: patent publication US20050244335A1, “Methods and compositions related to increasing antitumor activity of chemotherapeutic agents” (priority 2004, published 2005)

Tests used:
[1] = tested on: CD-1 mice; format: in vivo; conditions: CD-1 mice
Experimental: Male CD-1 mice, randomly divided into multiple treatment and control groups (10 mice/group), were given DEX by subcutaneous (s.c.) injection at doses of 0.01, 0.05, 0.1, 0.3 mg/mouse/day or saline (as controls) for 5 days prior to (day −4 to 0) or after (day 0 to 4) a single intraperitoneal (i.p.) injection of carboplatin (600 mg/m^2 or 200 mg/kg) on day 0. Animals were monitored daily for activity, physical condition, body weight and 14-day survival rates.
The significance of the differences among treated groups and controls were analyzed by ANOVA.

[2] = tested on: human breast cancer MDA-MB-468 xenografts; test: In vivo chemotherapy, breast cancer MDA-MB-468 xenograft model in nude mice; conditions: MDA-MB-468 model; agent alone
Source text: Cell Culture. […] All media contained 1% penicillin-streptomycin.
(§1) Data and Statistical Analysis.

[3] = tested on: human cancer xenografts; test: Six murine-human cancer xenograft models overall: efficacy and toxicity; conditions: nude mice; carboplatin 120 mg/kg, gemcitabine 160 mg/kg i.p.
Experimental: Human cancer xenograft models were established using the methods reported previously (26-29). When confluence reached 80%, cultured LS174T, MCF-7, MDA-MB-468, U87-MG, A549 and H1299 cells were harvested from the monolayer cultures, washed with the above indicated serum-free medium and resuspended in the same medium with Matrigel® basement membrane matrix at a 3:1 ratio, and then injected subcutaneously (s.c.) (5×10^6 cells, total volume 0.2 mL) into the left inguinal area of the nude mice. The animals were monitored for activity, physical condition, determination of body weight, and measurement of tumor growth. Tumor growth was determined by caliper measurement in two perpendicular diameters of the implant every other day. Tumor weight (in g) was calculated by the formula, 1/2a×b^2 where “a” is the long diameter and “b” is the short diameter (in cm).
Nude mice bearing human cancer xenografts were randomly divided into various treatment and control groups (5 mice/group). In treatment groups, animals were pre-treated with DEX subcutaneously (s.c., 0.1 mg/day for 5 days, Day −4-0) or saline (as controls). Carboplatin was administered intraperitoneally (i.p.) at a single dose of 120 mg/kg (360 mg/m^2) on day 0.
The antitumor activity (tumor mass) and peripheral blood counts were expressed as mean and standard deviations and the significance of differences were analyzed by ANOVA.
When mean tumor mass reached 44-68 mg, animals were treated with s.c. DEX at a dose of 0.1 mg/day for 5 days, followed by chemotherapy.

[4] = Pharmacokinetics of carboplatin in nude mice bearing LS174T xenografts; format: in vivo; conditions: for AUC / CL / Cmax / T1/2 / Vss: nude mice bearing LS174T xenografts, carboplatin 60 mg/kg iv
Experimental: Pharmacokinetics and Tissue Distribution of Carboplatin. Pharmacokinetic studies were carried out using a protocol similar to that previously described (26) using metabolism cages. Female nude mice bearing human colon cancer LS174T xenografts or human lung cancer A549 xenografts were used (3 animals for each time point). Animals were pre-treated with DEX (s.c., 0.1 mg/day/mouse for 5 days) or saline (as controls) and, at 1 hr after the fifth dose of DEX, were given a single intravenously (i.v.) bolus administration of carboplatin (60 mg/kg) via a tail vein. At various times (5, 15, and 30 min, 1, 2, 4, 8, and 24 hr after carboplatin dosing), blood samples were collected in heparinized tubes and tissue samples removed. Plasma was separated by centrifugation at 20,000 g for 5 min. Tissues including liver, kidneys, spleen, and tumor were taken at various times and immediately blotted on Whatman No. 1 filter paper, trimmed of extraneous fat or connective tissue, weighed, and homogenized in 0.9% NaCl physiological saline (5 mL per gram of wet weight). The resultant homogenates were stored at −70° C. until further analysis. Bone marrow cells were harvested by flushing the femurs with sterile physiological saline as reported previously (30). Briefly, after removing the distal and proximal ends of femur, each end of the bone was punctured with a 20-gauge needle fitted with a 5 mL syringe containing 1 mL of sterile physiological saline (pre-weighed). The bone was then held with a forceps over a test tube and the needle was inserted into the hole in the proximal end. The 1 mL saline was flushed through the bone into the tube by applying gentle, steady pressure to the plunger. The syringe was then filled with 5 ml of air that was gently forced through the bone to remove the remaining saline and bone marrow in the shaft. The resultant bone marrow cell suspension was weighed and lysed by sonicating 5 times for periods of 10 sec. Following centrifugation at 20,000 g for 30 min, the supernatant was removed and stored at −70° C. until further analysis.
HPLC Analysis of Carboplatin in Plasma and Tissues. Carboplatin in biological samples was analyzed by an analytical procedure involving micro-filtration and reversed-phase HPLC (31). 200 μL of plasma or tissue homogenates or bone marrow suspension was added to the reservoir of a Centrifree™ micropartition system. The latter was capped and centrifuged at 2,000 g for 5 min. All filtrates were transferred into a new micro centrifuge tube and 6 μL of the filtrates was injected onto the HPLC column. The HPLC system consisted of a Hewlett Packard 1050 ChemStation with a UV detector (Agilent 1050 series). Determination of Carboplatin was achieved using a LiChrosorb™ diol (10 μm, 250×4.6 mm) analytical column with a LiChroCART 100 RP-18 guard column. The mobile phase for plasma was composed of 98:2 acetonitrile:H2O (vol/vol) and 89:11 acetonitrile: 0.015% H3PO4 (vol/vol) for urine and tissue samples. The flow rates were 2 mL/min (for plasma) and 1.1 mL/min (for urine and tissue samples). The column elute was monitored by UV at 229 nm. Quantitation of plasma or tissue carboplatin was carried out by using an external standard curve (0-4,000.0 μg/mL) that was freshly prepared on a daily basis. Linear regression and correlation analysis were carried out to establish the standard peak-area/concentration curves for carboplatin.
as §1

[5] = LS174T nude mice, without DEX treatment

Question: For `N.N.O=C([O-])C1(C(=O)[O-])CCC1.[Pt+2]` [carboplatin], which survival rate ([1]; carboplatin 600 mg/m^2 (200 mg/kg) i.p. alone (carboplatin controls), 14-day) is on record?
Answer: Its survival rate is 10%.

Question: What about the mortality rate ([1]; single i.p. dose of carboplatin alone 600 mg/m^2 (200 mg/kg)) of the same compound?
Answer: The mortality rate was 90%.

Question: What about the “effect on tumor growth” value [2] of the same compound?
Answer: The value was “no effects on tumor growth”.

Question: What about the death [3] of the same compound?
Answer: The death was “no death occurred”.

Question: And the “tolerability by inspection and animal weights” value [3]?
Answer: The value was “tolerated well”.

Question: What about the “decrease in tumor Clearance by DEX pretreatment” value ([4]; LS174T nude mice) of the same compound?
Answer: The value was 160%.

Question: And the “increase in tumor AUC by DEX pretreatment” value ([4]; LS174T nude mice)?
Answer: Its value is 200%.

Question: And the “increase in tumor Cmax by DEX pretreatment” value ([4]; LS174T nude mice)?
Answer: The value was 100%.

Question: What about the “tumor AUC relative to bone marrow AUC” value [4, 5] of the same compound?
Answer: The value was 3%.

Question: And the “tumor AUC relative to liver AUC” value [4, 5]?
Answer: Its value is 23%.

Question: What about the “tumor AUC relative to spleen AUC” value [4, 5] of the same compound?
Answer: The value was 4%.

Question: What about the AUC ([4]; bone marrow, DEX (+)) of the same compound?
Answer: The AUC was 269.71 µg·h/mL.

Question: And the CL ([4]; bone marrow, DEX (+))?
Answer: Its CL is 0.22 mL/g/h.

Question: What about the Cmax ([4]; bone marrow, DEX (+)) of the same compound?
Answer: Its Cmax is 22.56 µg/mL.

Question: What about the T1/2 ([4]; bone marrow, DEX (+)) of the same compound?
Answer: Its T1/2 is 410 min.

Question: And the Vss ([4]; bone marrow, DEX (+))?
Answer: Its Vss is 2.17 mL/g.

Question: What about the AUC ([4]; bone marrow, DEX (−)) of the same compound?
Answer: Its AUC is 411.27 µg·h/mL.

Question: What about the CL ([4]; bone marrow, DEX (−)) of the same compound?
Answer: The CL was 0.15 mL/g/h.

Question: What about the Cmax ([4]; bone marrow, DEX (−)) of the same compound?
Answer: Its Cmax is 23.36 µg/mL.

Question: And the T1/2 ([4]; bone marrow, DEX (−))?
Answer: Its T1/2 is 669.6 min.

Question: What about the Vss ([4]; bone marrow, DEX (−)) of the same compound?
Answer: Its Vss is 2.42 mL/g.

Question: And the AUC ([4]; liver, DEX (+))?
Answer: The AUC was 42.45 µg·h/mL.

Question: And the CL ([4]; liver, DEX (+))?
Answer: The CL was 1.41 mL/g/h.

Question: And the Cmax ([4]; liver, DEX (+))?
Answer: Its Cmax is 19.41 µg/mL.

Question: What about the T1/2 ([4]; liver, DEX (+)) of the same compound?
Answer: Its T1/2 is 33.6 min.

Question: What about the Vss ([4]; liver, DEX (+)) of the same compound?
Answer: Its Vss is 1.14 mL/g.

Question: And the AUC ([4]; liver, DEX (−))?
Answer: The AUC was 51.52 µg·h/mL.

Question: And the CL ([4]; liver, DEX (−))?
Answer: Its CL is 1.16 mL/g/h.

Question: And the Cmax ([4]; liver, DEX (−))?
Answer: Its Cmax is 26.97 µg/mL.

Question: And the T1/2 ([4]; liver, DEX (−))?
Answer: The T1/2 was 29.4 min.

Question: What about the Vss ([4]; liver, DEX (−)) of the same compound?
Answer: The Vss was 0.82 mL/g.

Question: What about the AUC ([4]; plasma, DEX (+)) of the same compound?
Answer: Its AUC is 43.16 µg·h/mL.

Question: What about the CL ([4]; plasma, DEX (+)) of the same compound?
Answer: Its CL is 1.39 mL/g/h.

Question: What about the Cmax ([4]; plasma, DEX (+)) of the same compound?
Answer: The Cmax was 280.80 µg/mL.

Question: And the T1/2 ([4]; plasma, DEX (+))?
Answer: The T1/2 was 6.6 min.

Question: And the Vss ([4]; plasma, DEX (+))?
Answer: The Vss was 0.21 mL/g.

Question: And the AUC ([4]; plasma, DEX (−))?
Answer: Its AUC is 44.51 µg·h/mL.

Question: What about the CL ([4]; plasma, DEX (−)) of the same compound?
Answer: Its CL is 1.35 mL/g/h.

Question: And the Cmax ([4]; plasma, DEX (−))?
Answer: The Cmax was 375.27 µg/mL.

Question: And the T1/2 ([4]; plasma, DEX (−))?
Answer: The T1/2 was 4.8 min.

Question: And the Vss ([4]; plasma, DEX (−))?
Answer: The Vss was 0.16 mL/g.

Question: What about the AUC ([4]; spleen, DEX (+)) of the same compound?
Answer: Its AUC is 0.48 µg·h/mL.

Question: What about the CL ([4]; spleen, DEX (+)) of the same compound?
Answer: The CL was 126.35 mL/g/h.

Question: And the Cmax ([4]; spleen, DEX (+))?
Answer: The Cmax was 9.44 µg/mL.

Question: What about the T1/2 ([4]; spleen, DEX (+)) of the same compound?
Answer: Its T1/2 is 2.4 min.

Question: And the Vss ([4]; spleen, DEX (+))?
Answer: Its Vss is 6.36 mL/g.

Question: What about the AUC ([4]; spleen, DEX (−)) of the same compound?
Answer: Its AUC is 353.36 µg·h/mL.

Question: And the CL ([4]; spleen, DEX (−))?
Answer: The CL was 0.17 mL/g/h.

Question: What about the Cmax ([4]; spleen, DEX (−)) of the same compound?
Answer: Its Cmax is 24.20 µg/mL.

Question: What about the T1/2 ([4]; spleen, DEX (−)) of the same compound?
Answer: The T1/2 was 595 min.

Question: And the Vss ([4]; spleen, DEX (−))?
Answer: The Vss was 2.43 mL/g.

Question: What about the AUC ([4]; tumor, DEX (+)) of the same compound?
Answer: The AUC was 33.54 µg·h/mL.

Question: And the CL ([4]; tumor, DEX (+))?
Answer: The CL was 1.79 mL/g/h.

Question: And the Cmax ([4]; tumor, DEX (+))?
Answer: Its Cmax is 89.80 µg/mL.

Question: What about the T1/2 ([4]; tumor, DEX (+)) of the same compound?
Answer: Its T1/2 is 15.6 min.

Question: And the Vss ([4]; tumor, DEX (+))?
Answer: Its Vss is 0.67 mL/g.

Question: And the AUC ([4]; tumor, DEX (−))?
Answer: The AUC was 12.79 µg·h/mL.

Question: What about the CL ([4]; tumor, DEX (−)) of the same compound?
Answer: Its CL is 4.69 mL/g/h.

Question: And the Cmax ([4]; tumor, DEX (−))?
Answer: Its Cmax is 44.16 µg/mL.

Question: What about the T1/2 ([4]; tumor, DEX (−)) of the same compound?
Answer: The T1/2 was 12 min.

Question: What about the Vss ([4]; tumor, DEX (−)) of the same compound?
Answer: Its Vss is 1.36 mL/g.
